{"source": "patent US20260097111A1", "about": "“ETHER LIPIDS FOR HYPERACTIVATION OF MAMMALIAN DENDRITIC CELLS” (priority 2022, published 2026)", "assay": "DGP DP sizing (Malvern Mastersizer 3000)", "type": "physicochemical", "method": "DGP (Compound 2) DP Synthesis. DGP DP was synthesized at a 3 mL scale using the following procedure. […] Sterile 10×PBS was added to the solution resulting in a 1×PBS concentration and 4 mg/mL DGP DP concentration. The mixture was then stirred at 1000 rpm for another 30 min at RT. For DGP DP prepared at 12 or 18 mL scale, the same procedure was followed, with volumes, vials, and stir bars scaled up to achieve the 4 mg/mL DGP DP preparation.\nIn cases where DGP DS was micronized prior to use, DGP DS underwent jet milling using an M-50 (Microtech Engineering Company) to reduce DS size to an average of 3-5 μm. […] For in vitro studies, DGP DP samples were sonicated at 2 W (low energy) or 4 W (medium energy) over two 30 s intervals. For in vivo studies, DGP DP samples were sonicated at 3 W over two 30 s intervals as a mid-energy assessment.\nDGP (Compound 2) DP Sizing. DGP DP size was determined using a Malvern Mastersizer 3000 with a Hydro SV attachment. Briefly, DGP DP was diluted to 1 mg/mL in water prior to sizing. The 1 mg/mL DGP DP was added drop-wise to a measurement chamber filled with water under spinning until laser obscuration was 3-5%. Five measurements were taken per sample, with the average of the measurements reported.", "key": {"[1]": {"conditions": "18 mL scale, no DS or DP modification"}}, "data": [{"compound": "CCCCCCCCCCCCCCCCCCCCCCOC[C@@H](O)COP(=O)(O)O", "note": "[Compound 2, 1-docosyl-sn-glycerol-3-phosphate]", "values": [{"measurement": "Particulate Size D10", "setting": "3 mL scale", "result": 6.83, "unit": "μm"}, {"measurement": "Particulate Size D50", "setting": "3 mL scale", "result": 13.8, "unit": "μm"}, {"measurement": "Particulate Size D90", "setting": "3 mL scale", "result": 27.5, "unit": "μm"}, {"measurement": "Particulate Size D10", "setting": "12 mL scale", "result": 12.0, "unit": "μm"}, {"measurement": "Particulate Size D50", "setting": "12 mL scale", "result": 25.0, "unit": "μm"}, {"measurement": "Particulate Size D90", "setting": "12 mL scale", "result": 51.7, "unit": "μm"}, {"measurement": "average size", "setting": "12 or 18 mL scale", "result": "26-27 μm"}, {"measurement": "Particulate Size D10", "setting": "[1]", "result": 12.9, "unit": "μm"}, {"measurement": "Particulate Size D50", "setting": "[1]", "result": 26.7, "unit": "μm"}, {"measurement": "Particulate Size D90", "setting": "[1]", "result": 56.0, "unit": "μm"}]}]}
